Results: patent US20200345725A1, “Methods and Compositions for Treating Cancer” (Omeros Corporation, priority 2019, published 2020)

Target: GPR174-v38 (Homo sapiens, UniProt Q9BXC1)
Test: Inhibition of PS-induced GPR174 Gs signaling (GloSensor), HEK293 stably transfected with GPR174-v38
Type: cell-based
Settings: PS liposomes 1 μM; for IC50: GPR174-v38 (compound 59: data not shown), read-out: apparent IC50, inhibition of PS-induced GPR174 Gs signaling

Structure (SMILES)	PS-mediated GPR174 Gs signaling (FIGS. 47B-47F)	IC50 [nM]
O=C(c1ccccc1)N1CCN(c2cc(N3CCCCC3)c(F)cc2[N+](=O)[O-])CC1 [compound 6]	inhibited	~100
O=[N+]([O-])c1cc(F)c(N2CCCCC2)cc1N1CCN(S(=O)(=O)c2ccccc2)CC1 [compound 11]	inhibited	~100
Cc1ccccc1Nc1nnc(-c2ccc(C)c(S(N)(=O)=O)c2)c2ccccc12 [compound 20]	inhibited	~3000
CCOc1ccc(C2C3=C(CCCC3=O)NC3=C2C(=O)c2ccccc23)cc1OCC (centres unmarked) [compound 30]	inhibited	~1300
S=C(NCc1ccco1)Nc1ccc(I)cc1 [compound 59]	–	~10000
CCOc1ccc(C2C3=C(CCCC3=O)NC3=C2C(=O)c2ccccc23)cc1 (centres unmarked) [compound 23]	inhibited	~150
